From PubChem BioAssay (NCI) come the findings set out here.

“And” between values parts separate entries of the source, which are not always exact repeats. Identical values can stand only once.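 A five-concentration, 48-hour dose response in 96-well plates underlies each endpoint, interpolated linearly between surrounding concentrations. The concentration for 50% growth inhibition is given as GI50. The concentration for full growth arrest is given as TGI.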

Assay in all cases: DTP human tumour cell line panel, 48 h
Assay [1] has as its system K-562 leukemia.
Assay [2] relates to SN12C renal.
In assay [3] the test system is RXF 393 renal.
Assay [4] deals with HOP-62 NSCLC.
The subject of assay [5] is SF-295 CNS.
For assay [6], the system named is EKVX NSCLC.
Assay [7] deals with ACHN renal.
Assay [8] relates to SK-MEL-28 melanoma.
The subject of assay [9] is SK-OV-3 ovarian.
Assay [10] relates to OVCAR-4 ovarian.

One may read the GI50 as the concentration at which growth is held to half of that of the control. As usually defined, the TGI is the concentration at which net growth stops. A lower TGI goes with greater sensitivity of the cells. Regarding `O=C(c1ccc(F)c(F)c1Nc1ccc(I)cc1F)N1CC(O)([C@@H]2CCCCN2)C1`, the 50% growth inhibitory concentration (GI50) in [1] is 0.216 µM and 0.574 µM; in assay [2], 2.03 µM and 1.14 µM; in assay [3] it was 0.743 µM and 0.396 µM; in assay [4], 0.349 µM and 0.067 µM; in [5], 15.7 µM and > 10 µM; in assay [6], 0.308 µM. For the same compound, the GI50 in [7] was 0.463 µM and 0.637 µM; in assay [8], under 0.01 µM; in [9], 5.46 µM and 3.26 µM; in assay [10], 0.58 µM and > 3.96 µM. The TGI in assay [1] is 6.15 µM and > 10 µM; in assay [2], 18.7 µM and > 10 µM; in assay [3], 7.17 µM and > 6.97 µM; in assay [4], 16.9 µM and > 10 µM; in [5], 32.4 µM and > 10 µM; in assay [6] it was over 10 µM. For the same compound, the total growth inhibition concentration (TGI) was 15.1 µM and > 10 µM in [7]; 0.594 µM in [8]; 20.6 µM and > 10 µM in assay [9]; 17.1 µM and > 10 µM in assay [10].
Regarding `Cc1nc2ccccc2nc1-c1ccc(N=[N+]([O-])c2ccc(-c3nc4ccccc4nc3C)cc2)cc1`, the TGI in assay [1] is over 100 µM; in [2], over 100 µM; in assay [3] it was over 95.1 µM; in [4], over 81.8 µM; in assay [5], over 100 µM; in assay [6], over 100 µM. Besides, the TGI was over 100 µM in assay [7], over 100 µM in [8], over 82.5 µM in assay [9] and over 100 µM in [10].
Take `O=C1c2ccccc2C2(O)c3cc4ccccc4cc3OC12O` (stereo not given): the TGI in assay [1] was over 100 µM; in assay [2] it was over 100 µM; in [3], 97.6 µM; in [4], over 100 µM; in assay [5], over 100 µM; in [6], over 100 µM. Also, the total growth inhibition concentration (TGI) in assay [7], in [8], in [9] and in assay [10] was over 100 µM in each case.
With `CC1=C2CCCC2=C/C(=N/Nc2ccc([N+](=O)[O-])cc2[N+](=O)[O-])CC1`, the concentration for total growth inhibition (TGI) in assay [1], in assay [2], in assay [3], in assay [4], in [5] and in assay [6] was over 100 µM each time. The total growth inhibition concentration (TGI) in assay [7], in [8], in [9] and in assay [10] was over 100 µM throughout.
With `Nc1nc(N)c(N=Nc2ccc([As](=O)(O)O)cc2)c(=O)[nH]1`, the TGI in assay [1], in assay [2], in assay [3], in assay [4], in [5] and in assay [6] was over 100 µM throughout. The TGI in assay [7], in assay [8], in assay [9] and in [10] was over 100 µM in each case.
Turning to `COc1cc(CNCCCN2C(=O)c3ccc4c5c(ccc(c35)C2=O)C(=O)N(CCCNCc2cc(OC)c(OC)c(OC)c2)C4=O)cc(OC)c1OC`, the GI50 in assay [1] was 0.309 µM; in [2], 0.227 µM; in assay [3] it was 0.35 µM; in assay [4], 0.477 µM; in assay [5], 0.517 µM; in [6] it was 0.543 µM. Moreover, the GI50 is 0.841 µM in [7], 0.841 µM in assay [8], 1.01 µM in [9] and 0.0751 µM in [10]. In addition, the TGI worked out at 2.85 µM in assay [1]; 0.475 µM in assay [2]; 0.99 µM in assay [3]; 1.32 µM in assay [4]; 1.55 µM in assay [5]; 1.35 µM in assay [6]. Besides, the TGI in assay [7] was determined as 3.17 µM; in assay [8], 1.57 µM; in assay [9], 2.65 µM; in [10], 0.149 µM.
Take `O=C1CC(C[C@H](O)C2CCCCC2O)CC(=O)N1Cc1ccccc1` (stereo not given in full): the TGI in assay [1], in [2], in [3], in [4], in assay [5] and in [6] was over 100 µM throughout. Further, the TGI in assay [7], in [8], in [9] and in assay [10] was over 100 µM in each case.
For the compound `Cc1ccc(/C=C/c2c(C(=O)/C=C/c3ccc(C(F)(F)F)cc3)c(C)nc3ccccc23)cc1`, the GI50 in assay [1] is 1.55 µM; in assay [2] it was 1.51 µM; in assay [3], 1.12 µM; in assay [4] it was 1.88 µM; in [5], 1.74 µM; in assay [6], 1.53 µM. For the same compound, the GI50 in [7] is 1.4 µM; in assay [8], 1.93 µM; in [9], 1.8 µM; in assay [10], 1.61 µM. Further, the total growth inhibition concentration (TGI) was over 100 µM in [1]; 2.97 µM in [2]; 2.41 µM in assay [3]; 3.73 µM in assay [4]; 3.14 µM in assay [5]; 3.36 µM in assay [6]. For the same compound, the TGI in [7] was found to be 2.7 µM; in assay [8], 3.63 µM; in assay [9] it was 3.6 µM; in assay [10], 3.37 µM.
